Read-outs that look alike come from different tables or passages of the source.
Assay: Storage stability of nasal sprays with preservatives
Excerpt: As the preservative, for example, benzalkonium chloride, which is often employed in the field of nasal drops, may be used. […] In addition to the free acids as such, their partially or completely neutralized salts may also be added to the nasal sprays.

With `O=C(O)c1ccccc1` [benzoic acid] the “storage stability of the nasal spray” value (preservative in nasal spray, compared to benzalkonium chloride) was “significant extension of the storage stability”.
For `C/C=C/C=C/C(=O)O` [sorbic acid], the “storage stability of the nasal spray” value was “significant extension of the storage stability”.

— patent US20100062068A1, “CISTUS EXTRACTS” (KREWEL […], priority 2007, published 2010)
